In a melting point compilation (Tetko et al.; mined from patent text by program, amines drawn as free bases though some values may be those of a salt):

Compound	melting point
COC(=O)COc1ccc2c(c1)sc1cc3ccccc3c(-c3ccc(O)cc3)c12	229 to 231 °C
CCn1cc(CN(C(=O)C2CCCc3cc(OC)ccc32)c2ccc(C(C)C)cc2)cn1 (configuration not stated)	111 to 113 °C
COc1ccccc1N1CCN(CC(O)COc2ccc(OCc3ccccc3)c(C(C)(C)C)c2)CC1 (configuration not stated)	133 to 134 °C
Clc1cc(-c2cnc3c(c2)N(Cc2c(Cl)cccc2Cl)CCN3)ccn1	194 °C
CC(C)(C)OC(=O)CN1CCN2C(=O)N(c3cc(Cl)cc(Cl)c3)C(=O)C2(Cc2ccc(Br)cc2)C1 (configuration not stated)	74.7 °C
NCC1Cc2cccc(Nc3cc(Cl)cc(Cl)c3)c2O1 (configuration not stated)	> 250 °C
CCOC(=O)C1=C(COCc2nccn2C)NC(C)=C(C(=O)OC)C1c1ccccc1Cl (configuration not stated)	137 to 138 °C
O=c1[nH]nc2c3c(cccc13)N=C(CN1CCCN(S(=O)(=O)c3ccccc3)CC1)N2	265 to 268 °C
CC(C)=C(c1ccc(C(=O)O)cc1)c1ccc2c(c1)C(C)(C)CCC2(C)C	204 to 206 °C
COC(=O)CCCS(=O)(=O)c1c(Cc2cccc3ccccc23)sc2c1c(=O)n(C)c(=O)n2CC(C)C	122 to 124 °C
Nc1nc(-c2ccc(Cl)cc2)cc(C2CCN(C(=O)c3ccccc3)CC2)n1	129 to 130 °C
COc1ccc(OC)c2c1C(=O)C=C(SCCC(=O)O)C2=O	208 to 209 °C
CC(C(=O)O)c1ccc(-c2ccc(F)cc2F)cc1 (configuration not stated)	110 to 113 °C
O=c1[nH]c2cccc(OCC(O)CNCCc3ccc(-n4c(CCC5CCCC5)nc5cccnc54)cc3)c2[nH]1 (configuration not stated)	115 to 117 °C
Cc1ccc(P(c2ccc(C)cc2)c2cccc3c2-c2c(cccc2P(c2ccc(C)cc2)c2ccc(C)cc2)OCCCO3)cc1	108 to 110 °C
COc1ccc2c(-c3ccc(OC(C)=O)cc3)c(-c3ccc(C(F)(F)F)cc3)c(=O)oc2c1	198 to 201 °C
CCOC(=O)COc1ccc(NC(=O)c2ccc(C(C)(C)C)cc2)cc1	119 to 122 °C
O=[N+]([O-])c1ncn(COC(CO)CO)n1	132 °C
CC(C)(C)OC(=O)Nc1cc(N2CCOCC2)c(C#Cc2ccccc2)cc1N	174 to 176 °C
NC(=O)C1CCCc2c1c1cc(OCCCC(=O)O)ccc1n2Cc1ccccc1 (configuration not stated)	199 to 200 °C
C#CCNC(=NCCSCc1ccc(CN(C)C)o1)NC#N	122 to 124 °C
CCCC1(C(C)(C)C(=O)Oc2ccc(N)cc2)C(=O)NC(=O)NC1=O	212 to 215 °C
O=C1N[C@H](C(=O)NCCO)CS1	116 to 118 °C
CC1(C=O)COC2(CCCCCCCCCCC2)OO1 (configuration not stated)	88 to 89 °C

Compound	melting point
N[C@@H](Cc1ccc(C(F)(F)F)cc1)[C@H](O)c1ccc(Cl)nc1 (racemic)	103 to 104 °C
CCCOc1ccc(S(C)(=O)=O)cc1C(=O)Nc1c(C(N)=O)nn(CC2CC2)c1CC	185 to 186 °C
Cc1cc(Br)c(Cl)c(Cl)c1N	66 to 68 °C
CC(c1oc2ccccc2c(=O)c1-c1ccccc1)n1nc(-c2cn[nH]c2)c2c(N)ncnc21 (configuration not stated)	214 to 217 °C
CC(C)(C)C1=NN(c2ccc(C(=O)O)cc2)C(c2ccc([N+](=O)[O-])cc2)C1 (configuration not stated)	245 °C
COC1CCC2C3CCC4CC(OC(=O)C(C)C)CCC4(C)C3CCC12C (configuration not stated)	82 to 87 °C
O=NSC1(C2OCCO2)CCCCC1	37 to 39 °C
Cn1c(=O)oc2cc(NCCCc3ccccc3)ccc21	97 to 98 °C
Nc1c(Br)cc(N=C2NCCN2)cc1Br	152 to 153 °C
C[C@]1(CN2CCN(C(=O)NC3CCCCC3)CC2)Cn2cc([N+](=O)[O-])nc2O1	98 to 101 °C
C=CCSc1ccc(OCc2ccccc2)nn1	56 to 58 °C
CCCCCCN(C=CC=C(C#N)C#N)CCCCCC	112 to 113 °C
Cc1nc(-c2ccc(NC(=O)CCCC(=O)Nc3ccc(-c4noc(C)n4)cc3)cc2)no1	235 to 237 °C
O=C(NOc1ncc(C(F)(F)F)cc1Cl)c1cccc2ccccc12	198 to 199 °C
CC(=O)NC[C@H]1CN(c2cc(F)c3c(c2)CCCCC3=O)C(=O)O1	151 to 152 °C
Cc1cc(C(C)(O)c2scnc2C)c(C)o1 (configuration not stated)	100 to 102 °C
O=c1[nH]c2c(Cl)cccc2c(=O)n1CCCN1CC=C(c2cccc(C(F)(F)F)c2)CC1	205 to 210 °C
CCOCc1nc2c(N)nc3cc(OCCCCCCNC(=O)NC(C)C)ccc3c2n1CC(C)(C)NC(=O)NC(C)C	205 to 209 °C
Cc1nc(N2C[C@H](C)N(Cc3ccc(F)cc3)C2=O)sc1C(=O)NCc1ccc(F)c(F)c1	62 to 65 °C
CN(C)C(=O)C=C(c1ccc(-c2ccccc2)cc1)c1ccc(-c2ccccc2)cc1	121 °C
COc1ccc(NC(=S)N2CCn3c(c(C(N)=O)c(Cl)c3-c3ccccc3)C2)cc1	176 to 178 °C
O=C(c1cnc(Cl)nc1C(F)(F)F)N1Cc2cccn2Cc2ccccc21	221 to 223 °C
CC(C)Oc1c(C(=O)O)oc(C(=O)O)c1OC(C)C	131 to 132 °C
O=C(NC1CC1)c1cccc(-c2ccc3ccn(-c4ccc(Cl)cc4Cl)c3c2)c1	273 to 274 °C

Now from value to molecule:

melting point	Compound
174 °C	O=C(O)/C(=C\c1cc(-c2ccc3c(c2)OCO3)n(-c2cc(Cl)ccc2Cl)n1)c1cccc(Cl)c1
143 to 146 °C	COc1ccc2c(c1)C(Cc1ccnc(F)c1)(Cc1ccnc(F)c1)c1ccccc1-2
76 to 77 °C	N#CC=Cc1ccc(F)c(Cl)c1F
117 to 119 °C	CSc1cc(C=O)cc(OCc2ccccc2)c1O
202 to 205 °C	Nc1cc(Cl)cc([N+](=O)[O-])c1C(=O)O
179 °C	c1ccc(C(c2ccc3[nH]nnc3c2)n2ccnc2)cc1 (configuration not stated)
121 °C	COc1ccc([C@@H]2CCc3cc(OC)ccc3[C@@H]2CCn2ccnc2)cc1 (relative stereo)
120 °C	CC(C)C(CO)NC(=O)c1nsc2ccc(-n3c(=O)cc(C(F)(F)F)n(C)c3=O)cc12 (configuration not stated)
193 to 197 °C	Nc1ncc(-c2ccc(F)cc2)nc1C(=O)Nc1cccnc1
104 to 105 °C	CCCc1sc(-c2ccccc2)nc1OC(=O)Nc1ccccc1
230 °C	Cc1cccc(Nn2c(C)c(C)[nH]c2=S)c1
45 to 46 °C	ClCCOc1ccc2c(c1)CCC2
135 to 136 °C	Cc1onc(C(F)(F)F)c1CS(=O)(=O)C1=NOC(C)(C)C1
262 to 270 °C	c1cnn(Cc2ccc3c(c2)Cc2c(-c4ccsc4)n[nH]c2-3)c1
139 to 143 °C	NN=C1c2ccccc2-c2ccc(Cl)cc21
83 to 84 °C	CCOC(=O)C1OC1C(=O)Nc1ccccc1 (configuration not stated)
210 to 211 °C	CC1(C)CCc2c(N3CCOCC3)nc3sc4c(NCc5ccco5)ncnc4c3c2C1
254 to 256 °C	CNC(=O)c1ccc2c(c1Nc1nc(Nc3ccc4c(c3)CCCC(=O)N4C)ncc1Cl)OCO2
> 260 °C	C[C@]12CCC(=O)N[C@@H]1CCc1cc(Sc3cccc4cccnc34)ccc12
150 °C	CCOP(=O)(OCC)c1ccc(Oc2ccccc2[N+](=O)[O-])cc1
197 °C	COc1c(C2CCN(CCCCNC(=O)c3ccc(-c4ccc(Cl)cc4)cc3)CC2)ccc2ccccc12
143 to 144 °C	CCCc1nc2c(N)nc(C)c(C)c2n1CCCCCS(=O)(=O)c1ccccn1
> 400 °C	O=c1c2ccc(-c3nnn[nH]3)cc2oc2ccc(-c3nnn[nH]3)cc12
117 to 118 °C	C=CCC(C(=O)OC)(C(=O)OC)C(Cc1ccccc1N)c1ccc(OC)cc1 (configuration not stated)
166 to 167 °C	Cc1nc(-c2ccccc2)nc(-c2ccncc2)c1NC(=O)OC(C)(C)C

melting point	Compound
> 250 °C	Cc1ncc(Cl)c(C(=O)Nc2ccn3cc(-c4ccccc4)nc3n2)n1
276 °C	COc1ccccc1-c1[nH]nc2c1C(=O)c1c(NC(C)=O)cccc1-2
191 to 192 °C	Cc1cc(O)c(C(C)(C)C)cc1N
170 °C	Cc1nc2c(OCc3c(Cl)ccc(S(=O)(=O)N4CCC[C@H]4C(=O)NCCCNC(=O)c4ccc(C=NN)cc4)c3Cl)cccn2c1Br
29 to 30 °C	CCCCCc1ccc(CCCCCC(=O)O)cc1
150 to 154 °C	Cc1c(C(=O)NC2C3(C)CCC(C3)C2(C)C)c2ccc(Cl)c(Cl)c2n1CCCNS(C)(=O)=O (configuration not stated)
162 to 163 °C	COc1cccc(Cn2c(C)c(CC(=O)O)c3cc(OCc4csc(-c5ccccc5)n4)ccc32)c1
104 to 105 °C	Cc1ccc2c3c(ccc2n1)OCC(CNCC1CCc2[nH]c4ccc(Cl)cc4c2C1)O3 (configuration not stated)
181 to 185 °C	CC(=O)N(C)c1cccnc1S(N)(=O)=O
165 °C	COc1ccc(N2CCOCC2)c2sc(C(=O)NCC(=O)c3cccs3)nc12
140 °C	Nc1cc(Br)nc(Br)c1[N+](=O)[O-]
> 245 °C	CN(C)c1ccc(-c2cccc3c2C2(COc4cc5c(cc42)OCO5)C(=O)N3)cn1 (configuration not stated)
266 to 268 °C	O=C(O)c1ccc(S(=O)(=O)Nc2cc3c4c(c2)CCCC4CCC3)cc1
168 to 170 °C	CN1CCN(C(=O)Nc2c(C(=O)c3ccccc3)[nH]c3cc(Cl)ccc23)CC1
164 to 166 °C	CCNC(C)c1cc(S(N)(=O)=O)sc1S(C)(=O)=O (configuration not stated)
146 to 147 °C	O=CC=Cc1c(C2CC2)nc2ccccc2c1-c1ccc(F)cc1
154 to 156 °C	CC1(C)CC2(CC(C)(C)N1c1nc(Cl)nc(N3CCOCC3)n1)OCCO2
293 to 295 °C	CC(C)(C(=O)O)c1ccc(C(=O)Nc2cn3c4c(ccc3n2)OCC4)cc1
168 °C	NC(=O)c1ccccc1-c1cnn(CCN2CCCCC2)c1
65 to 67 °C	CCOC(=O)/C=C/c1ccc(OCCCOCCOC)cc1Oc1ncc(C(F)(F)F)cc1Cl
85 to 86 °C	CCc1c([N+](=O)[O-])cc(C2CCNCC2)cc1[N+](=O)[O-]
272 °C	Cn1nnc2c(N3CCOCC3)nc(-c3ccc(NC(=O)Nc4ccsc4)cc3)nc21
81 to 83 °C	O=C(c1ccc(Cl)cc1)c1cc(CBr)ccc1Cl
255 to 257 °C	CN(Cc1cccc2c1CN(C1CCC(=O)NC1=O)C2=O)C(=O)Nc1ccc(Cl)cc1 (configuration not stated)
